The values that follow come from patent US9493506B2 (Enanta Pharmaceuticals, Inc., priority 2010, dated 2016).

What all share (format): cell-based, hepatitis C virus (genotype 1a-H77)
For assay [1], the system named is HCV replicon with a D168V mutation in a 1a-H77 background. Kind of assay: transient replicon assay, D168V mutation in 1a-H77 background. The settings on record: Hepatitis C virus, read-out: EC50 in a transient replicon assay with a D168V mutation in a 1a-H77 background. Summed up: (§1)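 Transient transfection of mutant replicon RNA (1a-H77 with NS2–NS5B, or 1b-N with NS3–NS5B plus E1202G/S2204I) by electroporation into IFN-cured Huh7 cells, plated at 7.5×10^3 cells per well in DMEM with 5% FBS. Serial compound dilutions added 4 h post-transfection (0.5% DMSO final).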
A general note: A replicon is a self-replicating genome or part of one, used to study replication in cells.

The test system of assay [2] is HCV replicon with a D168E mutation in a 1a-H77 background. Kind of assay: transient replicon assay, D168E mutation in 1a-H77 background. The conditions noted are these: Hepatitis C virus, read-out: EC50 in a transient replicon assay with a D168E mutation in a 1a-H77 background. The procedure, abridged:
as §1

Assay [3] deals with HCV replicon with a R155K mutation in a 1a-H77 background. Kind of assay: transient replicon assay, R155K mutation in 1a-H77 background. The settings on record: Hepatitis C virus, read-out: EC50 in a transient replicon assay with a R155K mutation in a 1a-H77 background. The procedure, abridged: as §1

For `Cc1nc2c(Br)cc(F)cc2nc1O[C@@H]1C[C@H]2C(=O)N[C@]3(C(=O)NS(=O)(=O)C4(C)CC4)C[C@H]3/C=C\CCCCC[C@H](NC(=O)c3noc(C)c3C)C(=O)N2C1` [Example 102, N-((2R,6S,13aS,14aR,16aS,Z)-2-(5-bromo-7-fluoro-3-methylquinoxalin-2-yloxy)-14a-(1-methylcyclopropylsulfonylcarbamoyl)-5,16-dioxo-1,2,3,5,6,7,8,9,10,11,13a,14,14a,15,16,16a-hexadecahydrocyclopropa[e]pyrrolo[1,2-a][1,4]diazacyclopentadecin-6-yl)-4,5-dimethylisoxazole-3-carboxamide], the EC50 (usually the concentration giving half of the maximal effect) was below 25 nM in assay [1], 3 to 20 nM in assay [2] and below 1 nM in assay [3].

Consider `CC(C)(C)OC(=O)N[C@H]1CCCCC/C=C\[C@@H]2C[C@@]2(C(=O)NS(=O)(=O)C2(C)CC2)NC(=O)[C@@H]2C[C@@H](Oc3nc4c(F)cccc4nc3C(F)(F)F)CN2C1=O` [Example 114, tert-butyl (2R,6S,13aS,14aR,16aS,Z)-2-(8-fluoro-3-(trifluoromethyl)quinoxalin-2-yloxy)-14a-(1-methylcyclopropylsulfonylcarbamoyl)-5,16-dioxo-1,2,3,5,6,7,8,9,10,11,13a,14,14a,15,16,16a-hexadecahydrocyclopropa[e]pyrrolo[1,2-a][1,4]diazacyclopentadecin-6-ylcarbamate], for which the 50% effective concentration (EC50) in assay [1] is 50 to 250 nM; in assay [2] it was 3 to 20 nM; in assay [3], below 1 nM.

Turning to `Cc1cc(C(=O)N[C@H]2CCCCC/C=C\[C@@H]3C[C@@]3(C(=O)NS(=O)(=O)C3CC3)NC(=O)[C@@H]3C[C@@H](Oc4nc5cc(F)cc(Br)c5nc4C)CN3C2=O)no1` [Example 98, N-((2R,6S,13aS,14aR,16aS,Z)-2-(5-bromo-7-fluoro-3-methylquinoxalin-2-yloxy)-14a-(cyclopropylsulfonylcarbamoyl)-5,16-dioxo-1,2,3,5,6,7,8,9,10,11,13a,14,14a,15,16,16a-hexadecahydrocyclopropa[e]pyrrolo[1,2-a][1,4]diazacyclopentadecin-6-yl)-5-methylisoxazole-3-carboxamide], the figures for the concentration giving a half-maximal response (EC50) in assay [1], in assay [2] and in assay [3] were below 25 nM, 3 to 20 nM and 1 to 10 nM, respectively.

`CC(C)(C)OC(=O)N[C@H]1CCCCC/C=C\[C@@H]2C[C@@]2(C(=O)NS(=O)(=O)C2CC2)NC(=O)[C@@H]2C[C@@H](Oc3nc4cc(F)ccc4nc3C(F)(F)F)CN2C1=O` [Example 106, tert-butyl (2R,6S,13aS,14aR,16aS,Z)-14a-(cyclopropylsulfonylcarbamoyl)-2-(7-fluoro-3-(trifluoromethyl)quinoxalin-2-yloxy)-5,16-dioxo-1,2,3,5,6,7,8,9,10,11,13a,14,14a,15,16,16a-hexadecahydrocyclopropa[e]pyrrolo[1,2-a][1,4]diazacyclopentadecin-6-ylcarbamate]: the values for the EC50 in assay [1], in assay [2] and in assay [3] were 50 to 250 nM, 3 to 20 nM and below 1 nM, respectively.

As to `Cc1cc(C(=O)N[C@H]2CCCCC/C=C\[C@@H]3C[C@@]3(C(=O)NS(=O)(=O)C3(C)CC3)NC(=O)[C@@H]3C[C@@H](Oc4nc5c(F)cccc5nc4C(F)(F)F)CN3C2=O)no1` [Example 115, N-((2R,6S,13aS,14aR,16aS,Z)-2-(8-fluoro-3-(trifluoromethyl)quinoxalin-2-yloxy)-14a-(1-methylcyclopropylsulfonylcarbamoyl)-5,16-dioxo-1,2,3,5,6,7,8,9,10,11,13a,14,14a,15,16,16a-hexadecahydrocyclopropa[e]pyrrolo[1,2-a][1,4]diazacyclopentadecin-6-yl)-5-methylisoxazole-3-carboxamide], the values for the EC50 in assay [1], in assay [2] and in assay [3] were below 25 nM, below 3 nM and below 1 nM, respectively.

As to `Cc1nc2ccc(F)cc2nc1O[C@@H]1C[C@H]2C(=O)N[C@]3(C(=O)NS(=O)(=O)C4CC4)C[C@H]3/C=C\CCCCC[C@H](NC(=O)c3noc(C)c3C)C(=O)N2C1` [Example 21, N-((2R,6S,13aS,14aR,16aS,Z)-14a-(cyclopropylsulfonylcarbamoyl)-2-(7-fluoro-3-methylquinoxalin-2-yloxy)-5,16-dioxo-1,2,3,5,6,7,8,9,10,11,13a,14,14a,15,16,16a-hexadecahydrocyclopropa[e]pyrrolo[1,2-a][1,4]diazacyclopentadecin-6-yl)-4,5-dimethylisoxazole-3-carboxamide], the concentration for a half-maximal effect (EC50) in assay [1] is below 25 nM; in assay [2] it was below 3 nM; in assay [3], below 1 nM.

On to `CC(C)(C)OC(=O)N[C@H]1CCCCC/C=C\[C@@H]2C[C@@]2(C(=O)NS(=O)(=O)C2CC2)NC(=O)[C@@H]2C[C@@H](Oc3nc4c(F)cccc4nc3C(F)(F)F)CN2C1=O` [Example 112, tert-butyl (2R,6S,13aS,14aR,16aS,Z)-14a-(cyclopropylsulfonylcarbamoyl)-2-(8-fluoro-3-(trifluoromethyl)quinoxalin-2-yloxy)-5,16-dioxo-1,2,3,5,6,7,8,9,10,11,13a,14,14a,15,16,16a-hexadecahydrocyclopropa[e]pyrrolo[1,2-a][1,4]diazacyclopentadecin-6-ylcarbamate], for which the EC50 in assay [1] was 25 to 50 nM; in assay [2], 3 to 20 nM; in assay [3], below 1 nM.

For `Cc1cnc(C(=O)N[C@H]2CCCCC/C=C\[C@@H]3C[C@@]3(C(=O)NS(=O)(=O)C3CC3)NC(=O)[C@@H]3C[C@@H](Oc4nc5ccccc5nc4C(F)(F)F)CN3C2=O)cn1` [Example 11, (2R,6S,13aS,14aR,16aS,Z)—N-(cyclopropylsulfonyl)-2-(3-(trifluoromethyl)quinoxalin-2-yloxy)-6-(5-methylpyrazine-2-carboxamido)-5,16-dioxo-1,2,3,5,6,7,8,9,10,11,13a,14,14a,15,16,16a-hexadecahydrocyclopropa[e]pyrrolo[1,2-a][1,4]diazacyclopentadecine-14a-carboxamide], the EC50 in assay [1] was 50 to 250 nM; in assay [2], above 100 nM; in assay [3], 10 to 25 nM.

As to `CC(F)(F)c1nc2ccccc2nc1O[C@@H]1C[C@H]2C(=O)N[C@]3(C(=O)NS(=O)(=O)C4(C)CC4)C[C@H]3/C=C\CCCCC[C@H](NC(=O)c3ccon3)C(=O)N2C1` [Example 5, N-((2R,6S,13aS,14aR,16aS,Z)-2-(3-(1,1-difluoroethyl)quinoxalin-2-yloxy)-14a-(1-methylcyclopropylsulfonylcarbamoyl)-5,16-dioxo-1,2,3,5,6,7,8,9,10,11,13a,14,14a,15,16,16a-hexadecahydrocyclopropa[e]pyrrolo[1,2-a][1,4]diazacyclopentadecin-6-yl)isoxazole-3-carboxamide], the values for the EC50 in assay [1], in assay [2] and in assay [3] were below 25 nM, below 3 nM and below 1 nM, respectively.

With `CC(F)(F)c1nc2ccccc2nc1O[C@@H]1C[C@H]2C(=O)N[C@]3(C(=O)NS(=O)(=O)C4CC4)C[C@H]3/C=C\CCCCC[C@H](NC(=O)c3ccon3)C(=O)N2C1` [Example 3, N-((2R,6S,13aS,14aR,16aS,Z)-14a-(cyclopropylsulfonylcarbamoyl)-2-(3-(1,1-difluoroethyl)quinoxalin-2-yloxy)-5,16-dioxo-1,2,3,5,6,7,8,9,10,11,13a,14,14a,15,16,16a-hexadecahydrocyclopropa[e]pyrrolo[1,2-a][1,4]diazacyclopentadecin-6-yl)isoxazole-3-carboxamide], the EC50 in assay [1] is 50 to 250 nM; in assay [2] it was below 3 nM; in assay [3], below 1 nM.

Take `CCc1nc2ccc(F)cc2nc1O[C@@H]1C[C@H]2C(=O)N[C@]3(C(=O)NS(=O)(=O)C4CC4)C[C@H]3/C=C\CCCCC[C@H](NC(=O)c3ccon3)C(=O)N2C1` [Example 122, N-((2R,6S,13aS,14aR,16aS,Z)-14a-(cyclopropylsulfonylcarbamoyl)-2-(3-ethyl-7-fluoroquinoxalin-2-yloxy)-5,16-dioxo-1,2,3,5,6,7,8,9,10,11,13a,14,14a,15,16,16a-hexadecahydrocyclopropa[e]pyrrolo[1,2-a][1,4]diazacyclopentadecin-6-yl)isoxazole-3-carboxamide]: the results for the EC50 in assay [1], in assay [2] and in assay [3] were 250 to 1000 nM, 20 to 50 nM and 1 to 10 nM, respectively.

As to `Cc1onc(C(=O)N[C@H]2CCCCC/C=C\[C@@H]3C[C@@]3(C(=O)NS(=O)(=O)C3(C)CC3)NC(=O)[C@@H]3C[C@@H](Oc4nc5cc(F)ccc5nc4C(F)(F)F)CN3C2=O)c1C` [Example 108, N-((2R,6S,13aS,14aR,16aS,Z)-2-(7-fluoro-3-(trifluoromethyl)quinoxalin-2-yloxy)-14a-(1-methylcyclopropylsulfonylcarbamoyl)-5,16-dioxo-1,2,3,5,6,7,8,9,10,11,13a,14,14a,15,16,16a-hexadecahydrocyclopropa[e]pyrrolo[1,2-a][1,4]diazacyclopentadecin-6-yl)-4,5-dimethylisoxazole-3-carboxamide], the EC50 is below 25 nM in assay [1], below 3 nM in assay [2] and below 1 nM in assay [3].
